row,SMILES,melting point [°C]
1,Cc1c[nH]c(Cc2ccccc2[N+](=O)[O-])n1,125 to 128
2,N#Cc1ccccc1Cn1ccc(OCc2ccc(F)cc2F)c(Br)c1=O,194 to 197
3,N#Cc1nc(N2CCNCC2)nc(N2CCS(=O)CC2)c1Cl,206 to 208
4,O=C1N=c2cc(Cl)c(Cl)cc2=NC1=O,> 400
5,Cc1cc(Cl)c2ccc(Cl)cc2c1CCC=O,104 to 106
6,N#CC=C1CCc2cnc3c(c21)CCO3,153 to 155
7,CC(C)n1nc(-c2sc(NC(=O)N3CCOCC3)nc2-c2ccccc2)ccc1=O,231 to 232
8,CCCCCCCCc1sc(NC(=O)c2cc3cc(C)cc(C)c3n2Cc2cccc(C(=O)O)c2)nc1-c1cc(OC)c(Cl)cc1OC,195 to 197
9,COc1cc(OC)c(-c2cncnc2)cc1/C=C/C(=O)c1ccc(C(=O)O)cc1,> 260
10,COc1cccc(-n2c3c(c(=O)c4cccnc42)CCO3)c1,194 to 196
11,C[C@]1(CN2CCC(Nc3ccc(OC(F)(F)F)cc3)CC2)Cn2cc([N+](=O)[O-])nc2O1,108 to 109
12,Oc1cc(O)c(C23CC4CC(CC(C4)C2)C3)cc1C12CC3CC(CC(C3)C1)C2,146
13,CCNC1CC=C(c2c[nH]c3cc(NC(=N)c4cccs4)ccc23)CC1 (configuration not stated),95 to 97
14,COc1cc(C(=O)O)cc(OC)c1N(C)C,65 to 69
15,CCCCOc1nc(N)c2[nH]c(=O)n(CCS(=O)(=O)c3cccc(CC(=O)OC)c3)c2n1,246 to 247
16,CSc1nn2c(Cl)cc(CN3CCN(C)CC3)nc2c1S(=O)(=O)c1ccccc1,113 to 116
17,COc1ccc(CONC(=O)c2nc(-c3ccc(Cl)c(OC)c3F)cc(N)c2Cl)cc1,142 to 145
18,COc1ccc(S(=O)(=O)N(CC(N)=O)c2ccc(Cl)cc2Cc2cc(Cl)ccc2Cl)cc1OC,200
19,Cc1nc(C(=O)NC23CC4CC(CC(O)(C4)C2)C3)c(C)n1-c1ccccc1,215 to 220
20,O=C(c1cc(=O)c2cc(O)ccc2[nH]1)N1CCC(COc2ccccc2)CC1,130
21,Cc1ccc2c(c1)C(=O)C(=O)N2CCCN(C(C)C)C(C)C,87 to 89
22,O=C(c1ccccc1)C(O)C1OC(n2ccc(=O)[nH]c2=O)C(O)(C(=O)c2ccccc2)C1(O)C(=O)c1ccccc1 (configuration not stated),119 to 120
23,CC1(C)C=Cc2cc(OCc3ccccc3)c(OCc3ccccc3)cc2O1,50 to 51
24,Cn1c(=O)cc(-c2cccc(Cl)c2)c2cc(C(C)(c3ccc(Cl)cc3)n3ccnc3)ccc21 (configuration not stated),120
25,CCCc1nc(SC)c(C(O)(C(=O)O)C(C)C)n1Cc1ccc(-c2ccccc2S(=O)(=O)NC(=O)NCc2ccccc2)cc1 (configuration not stated),180
26,COC(=O)COc1nsc2nc(C)cc(C)c12,89 to 91
27,CCOc1ccc(OCC)c(C[C@@H](C(=O)[C@H](Cc2cc(OCC)ccc2OCC)N2C(=O)c3ccccc3C2=O)N2C(=O)c3ccccc3C2=O)c1,92 to 93

row,SMILES,melting point [°C]
1,CCC(=CC(CNC(=O)c1cccnc1C)=NO)C(C)[N+](=O)[O-] (configuration not stated),128 to 129
2,O=C1Cc2ccc(C3CCCCC3)cc2O1,80 to 81
3,Cc1c(Cc2cccc(C(F)(F)F)c2)sc2c(-c3cccc(C(=O)NCCOC(C)C)c3)cccc12,121 to 122
4,O=C(O)c1ccccc1Nc1cccc(/C=C/c2nc3ccccc3s2)c1,146 to 150
5,O=S(=O)(F)c1ccccc1S(=O)(=O)N1CCC1,93
6,Cc1cc(-n2ccc(OCC3CC3)cc2=O)sc1C(=O)NCc1ccccc1,175 to 177
7,N=C1N(c2ccccc2)CCN1c1ccccc1[N+](=O)[O-],257 to 259
8,CN(C)c1nn(C(=O)NC(C)(C)CF)c(=O)n1NCc1cccc(Cl)c1,158
9,CCOC(=O)C(C)(C(C)=O)c1ccc([N+](=O)[O-])c(NC)c1C#N (configuration not stated),87 to 91
10,COC(=O)c1[nH]c2c(C)ccc(C)c2c1[N+](=O)[O-],193 to 194
11,Cc1nc2c(N)nc3ccccc3c2n1CC(C)(C)C(N)=O,284 to 287
12,COc1ccc(CSc2nnc(-c3ccnc(NC(=O)OC(C)(C)C)c3)o2)cc1F,244 to 245
13,CCN(CC)C(=O)n1cnc(S(=O)(=O)CC2CCCCC2)n1,40 to 46
14,CCOCc1nc2c(N)nc3cc(-c4cccnc4)ccc3c2n1Cc1ccc(CN)cc1,211 to 214
15,O=C(COC(=O)c1nocc1Br)NCCO[N+](=O)[O-],98 to 99
16,CCCCC(=O)Nc1cccc(NC(=O)CC(C)=O)c1,90
17,Cc1ccc(C(=O)Oc2ccc(C(CN(C)C)C3(O)CCCCC3)cc2)cc1 (configuration not stated),159 to 162
18,O=C(Nc1ccc(OCCN2CCOCC2)c2ccccc12)NC1CC1c1ccccc1 (configuration not stated),156 to 157
19,C[C@H]1[C@H](N)CN1c1cc2c(cc1F)c(=O)c(C(=O)O)cn2C(C)(C)C (relative stereo),225 to 227
20,CC(=O)OC(OC(C)=O)c1ccc(C#N)cc1,104 to 107
21,CC=C1CC2C3CCc4cc(OC)ccc4C3CCC2(CC)C1=O (configuration not stated),155 to 157
22,CCCC(O)c1cc(C#N)ccc1OCc1ccc(Cl)cc1Cl (configuration not stated),120 to 121
23,CCC(CCNC(=O)C(C#N)=Cc1ccc(O)c(O)c1)NC(=O)C(C#N)=Cc1ccc(O)c(O)c1 (configuration not stated),252
24,CC(=O)Oc1ccc(-n2c(-c3ccccc3)cc3c2CCCC3)cc1C(=O)O,155 to 162
25,COc1ccc(-c2c(Cl)c(CN3C(=O)CSC3=O)nc3sc4c(c23)CC[C@H](C(N)=O)C4)cc1,145 to 148
26,Nc1ccc2c(c1)C=C(C(=O)O)C(C(F)(F)F)O2 (configuration not stated),126 to 133

# Other lines, results leading:
row,melting point [°C],SMILES
1,225 to 227,CCCc1ccc(-c2c3ccccc3c(-c3ccc(CCC)cc3)c3cc(Cl)ccc23)cc1
2,266 to 268,CC(C)(C)C(=O)c1c[nH]c2ncc(C3CC3)nc12
3,223 to 226,CCCCc1nn(-c2cc(NC(=O)CC)ccc2Cl)c(=O)n1Cc1ccc(-c2ccccc2S(=O)(=O)NC(=O)c2occ(Cl)c2Cl)cc1
4,200 to 201,CCOc1ncc(C(C)=O)cc1-c1nc2c(CC)n(CC3CC3)nc2c(=O)[nH]1
5,123 to 125,"CCCOC(C)c1ccc(-c2ccc(O)cc2)cc1 (single isomer, unassigned; (+))"
6,208 to 210,Cc1n[nH]c(=O)n1N=Cc1cccnc1
7,129 to 131,CCOC(=O)c1c(-c2cccc(F)c2)c(C#N)n2c1CN(C(=O)OC(C)(C)C)CC2
8,219 to 220,CCCn1nc2c(N)nc3ccccc3c2c1CC
9,117 to 118,CCCCCCCCCCCCNC1=NC(N2CCOCC2)=NCN1
10,53.8 to 55.9,COC(=O)c1cc(C)cc(C(C)(C)C#N)c1
11,241 to 242,CCn1c(=O)c2c(nc(/C=C/c3ccc(OC)c(OC(C)=O)c3)n2C)n(CC)c1=O
12,64 to 65,CCCCCCCCCCCCc1c[nH]c(C=O)c1
13,128 to 130,CC(C)(C)c1nnc(NC(=O)CC(=O)CBr)s1
14,142 to 144,CC(=O)c1ccc(OCc2cncnc2)cc1OC(CCC(=O)O)c1ccccc1C (racemic)
15,71 to 72,C=CCN1CCCN(c2cc(Cl)ccc2C)C1=S
16,113 to 114,CCCC(=O)NCCc1c[nH]c2ccc(OCCN3CCCCC3)cc12
17,229 to 230,CNc1nc(Cc2c(Cl)cccc2Cl)nc(Nc2ccc(C#N)cc2)n1
18,140 to 141,C=CC1=CC=C(OC)C(OC)([N+](=O)[O-])C1 (configuration not stated)
19,146,CCOC(=O)C(C(=O)C(C)C)C1c2ccccc2C(=O)N1c1ccc2ccc(Cl)nc2n1 (configuration not stated)
20,139 to 143,Cc1ccc2c(c1)c(N1CCN(C(=O)c3cccs3)CC1)c(C#N)c(=O)n2CCN1CCCC1
21,200 to 202,CC(=O)NCC1CN(c2ccc(N3CCN(c4nnc(C#N)s4)C(F)C3)cc2)C(=O)O1 (configuration not stated)
22,92,O=C1c2cc(Cl)ccc2-n2cccc21

row,melting point [°C],SMILES
1,195 to 197,Cc1cc(C)n(C)c1C(=O)c1cccnc1
2,164 to 166,CC1(C)CON(Cc2ccc(NC(=O)Cc3ccccc3C(=O)O)cc2)C1=O
3,152,CCOc1ccc([N+](=O)[O-])c(NN2CCOCC2)c1
4,77 to 78,Cc1cc2n(c1)CN(CCCO)c1ccccc1-2
5,128 to 135,CCCC(=O)Nc1nc(CN2CCN(C(c3ccccc3)c3ccccc3)CC2)cs1
6,125 to 127,CS(=O)(=O)NC(=O)NCCCCC1CCSS1 (configuration not stated)
7,181,CC(C)(C)c1cc(C(=NNc2ccccc2)c2cccnc2Cl)cc(C(C)(C)C)c1O
8,79 to 80,Cc1c(C)c2c(c(C)c1N)CC(C)(CN1CCC(CCCc3ccccc3)CC1)O2 (configuration not stated)
9,> 300,Cc1cnc2c(=O)[nH]c3ccc(Cl)cc3n12
10,155 to 157,COc1ccccc1CCC1CCCCn2c1nc(-c1ccncn1)cc2=O (racemic)
11,182 to 184,COc1cc2cc(C(=O)N3CC(CCl)c4c3cc(OCc3ccccc3)c3ncccc43)[nH]c2c(OC)c1OC (configuration not stated)
12,97 to 100,Nc1ccc(-c2ncon2)cc1
13,146 to 148,O=C(O)c1ccc(CCCC2SCC(=O)N2CCC2(O)CCCCCC2)cc1 (configuration not stated)
14,80,CCN(CC)C(=O)n1cnc(Sc2cc(F)c(C#N)cc2F)n1
15,61 to 62,CC(=O)c1cccc(-c2ncc(OCCCN(C)C)cn2)c1
16,144 to 146,CSc1nnc(-c2ccc(F)cc2)c(-c2ccc(N(C)C)cc2)n1
17,125 to 126,CC(C)CNCc1cc2cc(NC(=O)c3ccc(OCC4CCOC4)cc3)ccc2n1C (configuration not stated)
18,165 to 167,CC(CC(=O)Nc1cccc(/C=C/c2nc(C3CCC3)cs2)c1)C(=O)O (configuration not stated)
19,91 to 92,CN(C)c1cc(C(OC(=O)C(Cl)(Cl)Cl)c2ccccc2)c([N+](=O)[O-])cc1[N+](=O)[O-] (configuration not stated)
20,110,CCCCCCCCC1(CCCCCCCC)c2cc(O)ccc2-c2ccc(Br)cc21
21,58 to 60,CCC1(CC)CN(C(C)(C)C)C(=O)C(CC)(CC)N1OC(=O)C(C)(C)C
22,105 to 107,CC(=O)c1cccc(Oc2ncccc2C(=O)NCC2CCC(C(C)(C)O)CC2)c1 (configuration not stated)

# From a melting point compilation (Tetko et al.; mined from patent text by program, amines drawn as free bases though some values may be those of a salt)
